Series [1] can be described thus: Half life of the compound under aerobic condition.
Series [2] can be described thus: Half life of the compound.
Series [3] can be described thus: Half life of the compound under anaerobic condition.
The next series concerns Gossypium hirsutum. Put plainly: Toxicity in Gossypium hirsutum (cotton) assessed as formation of injury to cotton. It counts as organism-based. The note with it: in vivo.
Series [4] has as its system Erigeron canadensis. Briefly: Herbicidal activity against glyphosate-resistant Conyza canadensis (horseweed) assessed as residual control at 47 g a.i./ha treated during autumn and spring measured 4 weeks after treatment. It counts as functional.
Series [5] relates to Erigeron canadensis. Briefly: Herbicidal activity against glyphosate-resistant Conyza canadensis (horseweed) assessed as residual control at 47 g a.i./ha treated during autumn and spring measured 6 weeks after treatment. It counts as functional.
The test system of series [6] is Erigeron canadensis. Put plainly: Herbicidal activity against glyphosate-resistant Conyza canadensis (horseweed) assessed as residual control at 47 g a.i./ha treated during autumn and spring measured 8 weeks after treatment. It counts as functional.
Series [7] concerns Erigeron canadensis. Put plainly: Herbicidal activity against glyphosate-resistant Conyza canadensis (horseweed) assessed as residual control at 71 g a.i./ha treated during autumn and spring measured 8 weeks after treatment. It counts as functional.
In series [8] the test system is Erigeron canadensis. Put plainly: Herbicidal activity against glyphosate-resistant Conyza canadensis (horseweed) assessed as residual control at 71 g a.i./ha treated during autumn and spring measured 6 weeks after treatment. In kind it is functional.
The subject of series [9] is Erigeron canadensis. Put plainly: Herbicidal activity against glyphosate-resistant Conyza canadensis (horseweed) assessed as residual control at 71 g a.i./ha treated during autumn and spring measured 4 weeks after treatment. In kind it is functional.
Series [10] has as its system Erigeron canadensis. Put plainly: Herbicidal activity against glyphosate-resistant Conyza canadensis (horseweed) assessed as residual control at 1120 g a.i./ha treated during autumn and spring measured 4 weeks after treatment. It counts as functional.
Series [11] relates to Erigeron canadensis. Briefly: Herbicidal activity against glyphosate-resistant Conyza canadensis (horseweed) assessed as residual control at 1120 g a.i./ha treated during autumn and spring measured 6 weeks after treatment. In kind it is functional.
Series [12] relates to Erigeron canadensis. Put plainly: Herbicidal activity against glyphosate-resistant Conyza canadensis (horseweed) assessed as residual control at 1120 g a.i./ha treated during autumn and spring measured 8 weeks after treatment. In kind it is functional.
For series [13], the system named is Erigeron canadensis. Put plainly: Herbicidal activity against glyphosate-resistant Conyza canadensis (horseweed) assessed as residual control at 1680 g a.i./ha treated during autumn and spring measured 6 weeks after treatment. In kind it is functional.
Series [14] has as its system Erigeron canadensis. Briefly: Herbicidal activity against glyphosate-resistant Conyza canadensis (horseweed) assessed as residual control at 1680 g a.i./ha treated during autumn and spring measured 4 weeks after treatment. It counts as functional.
Series [15] deals with Erigeron canadensis. Put plainly: Herbicidal activity against glyphosate-resistant Conyza canadensis (horseweed) assessed as residual control at 1680 g a.i./ha treated during autumn and spring measured 8 weeks after treatment. In kind it is functional.
For series [16], the system named is Erigeron canadensis. Put plainly: Herbicidal activity against glyphosate-resistant Conyza canadensis (horseweed) assessed as residual control at 420 g a.i./ha treated during autumn and spring measured 4 weeks after treatment. In kind it is functional.
For series [17], the system named is Erigeron canadensis. Briefly: Herbicidal activity against glyphosate-resistant Conyza canadensis (horseweed) assessed as residual control at 420 g a.i./ha treated during autumn and spring measured 8 weeks after treatment. In kind it is functional.
In series [18] the test system is Erigeron canadensis. Briefly: Herbicidal activity against glyphosate-resistant Conyza canadensis (horseweed) assessed as residual control at 420 g a.i./ha treated during autumn and spring measured 6 weeks after treatment. It counts as functional.
For series [19], the system named is Erigeron canadensis. Briefly: Herbicidal activity against glyphosate-resistant Conyza canadensis (horseweed) assessed as residual control at 1400 g a.i./ha treated during autumn and spring measured 6 weeks after treatment. It counts as functional.
The subject of series [20] is Erigeron canadensis. Put plainly: Herbicidal activity against glyphosate-resistant Conyza canadensis (horseweed) assessed as residual control at 1400 g a.i./ha treated during autumn and spring measured 8 weeks after treatment. It counts as functional.
For series [21], the system named is Erigeron canadensis. Briefly: Herbicidal activity against glyphosate-resistant Conyza canadensis (horseweed) assessed as residual control at 1400 g a.i./ha treated during autumn and spring measured 4 weeks after treatment. In kind it is functional.

For orientation: half-life means how long it takes for the measured level to halve. High values mean slow decline, low ones rapid decline. For the molecule `COc1c(Cl)ccc(Cl)c1C(=O)O` [3,6 DICHLOROMETHOXYBENZOIC ACID], the half-life in series [1] is 31 days; in series [2], 7 days; in series [3] it was 58 days.

As to `COc1cc(OC)nc(Sc2cccc(Cl)c2C(=O)O)n1` [PYRITHIOBAC], the Activity entry with Gossypium hirsutum is given as “Non-toxic”; in the series with Erigeron canadensis [4] it was 60%; in the series on Erigeron canadensis [5], 72%; in the series with Erigeron canadensis [6], 37%.

As to `C#CCN1C(=O)COc2cc(F)c(N3C(=O)C4=C(CCCC4)C3=O)cc21` [FLUMIOXAZIN], the Activity entry in the series with Gossypium hirsutum is “Non-toxic”; in the series on Erigeron canadensis [7] it was 35%; in the series on Erigeron canadensis [8], 99%; in the series with Erigeron canadensis [9] it was 100%.

Take `CSc1nc(NC(C)C)nc(NC(C)C)n1` [PROMETRYN]: the Activity is given as 100% with Erigeron canadensis [10], 98% in the series on Erigeron canadensis [11], “Non-toxic” in the series on Gossypium hirsutum and 20% in the series on Erigeron canadensis [12].

In the case of `CNc1cnn(-c2cccc(C(F)(F)F)c2)c(=O)c1Cl` [NORFLURAZONE], the Activity entry in the series on Gossypium hirsutum is on record as “Non-toxic”; in the series on Erigeron canadensis [13], 100%; in the series on Erigeron canadensis [14] it was 100%; with Erigeron canadensis [15], 100%.

In the case of `CCOc1cc(Oc2ccc(C(F)(F)F)cc2Cl)ccc1[N+](=O)[O-]` [OXYFLUORFEN], the Activity entry is on record as “Non-toxic” in the series with Gossypium hirsutum, 100% with Erigeron canadensis [16], 95% in the series on Erigeron canadensis [17] and 99% in the series on Erigeron canadensis [18].

Turning to `CN(C)C(=O)Nc1ccc(Cl)c(Cl)c1` [DCMU], the Activity is listed as 100% in the series with Erigeron canadensis [10], 99% in the series with Erigeron canadensis [11], “Non-toxic” in the series on Gossypium hirsutum and 25% in the series with Erigeron canadensis [12].

For the molecule `CN(C)C(=O)Nc1cccc(C(F)(F)F)c1` [FLUOMETURON], the Activity entry is listed as “Non-toxic” in the series on Gossypium hirsutum, 99% in the series with Erigeron canadensis [19], 80% with Erigeron canadensis [20] and 98% with Erigeron canadensis [21].

Source of the values: ChEMBL document CHEMBL3046394, “Conyza canadensis (L.) Cronquist response to pre-plant application of residual herbicides in cotton (Gossypium hirsutum L.)” (Crop Prot, 2009).
